ChEMBL document CHEMBL1201862, “PubChem BioAssay data set” (2004)
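Each compound was tested at five concentrations against cells in 96-well plates for 48 hours. Abbreviation: GI50, concentration required for 50% inhibition of growth.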 Activity calls are given as the source filed them. Rule as the data show it: active = GI50 up to about 1.1 µM and inactive = higher.

Key:
Test in all cases: growth of human tumour cells (NCI), 48 h
786-0 = tested on: 786-0
ACHN = tested on: ACHN
BT-549 = tested on: BT-549
CCRF-CEM = tested on: CCRF-CEM
COLO 205 = tested on: COLO 205
EKVX = tested on: EKVX
HCT-15 = tested on: HCT-15
HL-60 = tested on: HL-60
MDA-MB-231 = tested on: MDA-MB-231
MDA-MB-435 = tested on: MDA-MB-435
MDA-N = tested on: MDA-N
MOLT-4 = tested on: MOLT-4
Malme-3M = tested on: Malme-3M
OVCAR-4 = tested on: OVCAR-4
OVCAR-8 = tested on: OVCAR-8
SF-295 = tested on: SF-295
SN12C = tested on: SN12C
SNB-19 = tested on: SNB-19
T47D = tested on: T47D
TK-10 = tested on: TK-10

| SMILES | GI50 (786-0) | GI50 (ACHN) | GI50 (BT-549) | GI50 (CCRF-CEM) | GI50 (COLO 205) | GI50 (EKVX) | GI50 (HCT-15) | GI50 (HL-60) | GI50 (MDA-MB-231) | GI50 (MDA-MB-435) | GI50 (MDA-N) | GI50 (MOLT-4) | GI50 (Malme-3M) | GI50 (OVCAR-4) | GI50 (OVCAR-8) | GI50 (SF-295) | GI50 (SN12C) | GI50 (SNB-19) | GI50 (T47D) | GI50 (TK-10) |
| --- | --- | --- | --- | --- | --- | --- | --- | --- | --- | --- | --- | --- | --- | --- | --- | --- | --- | --- | --- | --- |
| Cc1nc(N)c(N2CCN(S(=O)(=O)N(Cc3ccccc3)Cc3ccccc3)CC2)c(O)n1 | 28.9 µM (inactive) | 18.2 µM (inactive) | 48.9 µM (inactive) | > 100 µM (inactive) | 23.3 µM (inactive) | 58.6 µM (inactive) | > 100 µM | 57.7 µM (inactive) | 62.4 µM (inactive) | 38.5 µM (inactive) | 85.1 µM (inactive) | > 100 µM (inactive) | 25.1 µM (inactive) | 22.2 µM (inactive) | 35.2 µM (inactive) | 26.4 µM (inactive) | 32.7 µM (inactive) | 25 µM (inactive) | 15.3 µM (inactive) | 26.5 µM (inactive) |
| NNC(=O)CC(=O)Nc1cccc(Cl)c1 | > 100 µM (inactive) | > 100 µM (inactive) | > 100 µM (inactive) | > 100 µM (inactive) | > 100 µM (inactive) | > 100 µM (inactive) | > 100 µM | > 100 µM (inactive) | > 100 µM (inactive) | > 100 µM (inactive) | > 100 µM (inactive) | > 100 µM (inactive) | > 100 µM (inactive) | > 100 µM (inactive) | > 100 µM (inactive) | > 100 µM (inactive) | > 100 µM (inactive) | > 100 µM (inactive) | > 100 µM (inactive) | > 100 µM (inactive) |
| COC1CCON1C(=O)c1ccccc1 (stereo not given) | > 10 µM (inactive) | > 10 µM (inactive) | > 10 µM (inactive) | > 10 µM (inactive) | > 10 µM (inactive) | > 10 µM (inactive) | > 10 µM | > 10 µM (inactive) | > 10 µM (inactive) | > 10 µM (inactive) | > 10 µM (inactive) | > 10 µM (inactive) | > 10 µM (inactive) | > 10 µM (inactive) | > 10 µM (inactive) | > 10 µM (inactive) | > 10 µM (inactive) | > 10 µM (inactive) | > 10 µM (inactive) | > 10 µM (inactive) |
| COc1cc(-c2cc(=O)c3c(O)c(OC)c(OC)c(OC)c3o2)cc(OC)c1OC [GARDENIN] | 3.72 µM (inactive) | 3.33 µM (inactive) | 6.76 µM (inactive) | > 100 µM (inactive) | > 100 µM (inactive) | 22.3 µM (inactive) | > 100 µM | > 60 µM (inactive) | 2.91 µM (inactive) | > 100 µM (inactive) | > 92.7 µM (inactive) | > 100 µM (inactive) | > 100 µM (inactive) | > 100 µM (inactive) | 4.57 µM (inactive) | 8.47 µM (inactive) | 3.94 µM (inactive) | 10.7 µM (inactive) | 10.2 µM (inactive) | 6.92 µM (inactive) |
| Cc1cc(C2CC(O)C(CO)O2)c(F)cc1F (stereo not given) | > 100 µM (inactive) | > 100 µM (inactive) | > 100 µM (inactive) | > 100 µM (inactive) | > 100 µM (inactive) | > 100 µM (inactive) | > 100 µM | 91.6 µM (inactive) | > 100 µM (inactive) | > 100 µM (inactive) | > 100 µM (inactive) | > 100 µM (inactive) | > 100 µM (inactive) | > 100 µM (inactive) | > 100 µM (inactive) | > 100 µM (inactive) | > 100 µM (inactive) | > 100 µM (inactive) | > 100 µM (inactive) | > 100 µM (inactive) |
